Experimental data published in patent publication US8530489B2 (Vertex Pharmaceuticals Incorporated, priority 2006, dated 2013).

target: PLK1 (Homo sapiens, UniProt P53350); assay: PLK1 Inhibition Assay I (radioactive-phosphate incorporation); assay type: biochemical; conditions: Ki(app); PLK1 Inhibition Assay I or II (table does not say which)
Experimental: The compounds of the present invention are evaluated as inhibitors of human PLK kinase using the following assays.
Compounds were screened for their ability to inhibit PLK1 using a radioactive-phosphate incorporation assay. Assays were carried out in a mixture of 25 mM HEPES (pH 7.5), 10 mM MgCl2, and 1 mM DTT. Final substrate concentrations were 350 μM [γ-33P]ATP (136 mCi 33P ATP/mmol ATP, Amersham Pharmacia Biotech/Sigma Chemicals) and 450 μM peptide (KKKISDELMDATFADQEAK) [SEQ. ID:1]. Assays were carried out at 25° C. in the presence of 2 nM PLK1. An assay stock buffer solution was prepared containing all of the reagents listed above, with the exception of ATP and the test compound of interest. 30 μL of the stock solution was placed in a 96 well plate followed by addition of 2 μL of DMSO stock containing serial dilutions of the test compound (typically starting from a final concentration of 10 μM with 2-fold serial dilutions) in duplicate (final DMSO concentration 5%). The plate was pre-incubated for 10 minutes at 25° C. and the reaction initiated by addition of 8 μL [γ-33P]ATP (final concentration 350 μM).
The reaction was stopped after 240 minutes by the addition of 100 μL 0.14M phosphoric acid. A multiscreen phosphocellulose filter 96-well plate (Millipore, Cat No. MAPHN0B50) was pretreated with 100 μL 0.1 M phosphoric acid prior to the addition of 125 μL of the stopped assay mixture. The plate was washed with 4×200 μL 0.1 M phosphoric acid. After drying, 100 μL Optiphase ‘SuperMix’ liquid scintillation cocktail (Perkin Elmer) was added to the well prior to scintillation counting (1450 Microbeta Liquid Scintillation Counter, Wallac).
After removing mean background values for all of the data points, Ki(app) data were calculated from non-linear regression analysis of the initial rate data using the Prism software package (GraphPad Prism version 3.0cx for Macintosh, GraphPad Software, San Diego Calif., USA).

Chain of PLK1 (P53350 whole entry): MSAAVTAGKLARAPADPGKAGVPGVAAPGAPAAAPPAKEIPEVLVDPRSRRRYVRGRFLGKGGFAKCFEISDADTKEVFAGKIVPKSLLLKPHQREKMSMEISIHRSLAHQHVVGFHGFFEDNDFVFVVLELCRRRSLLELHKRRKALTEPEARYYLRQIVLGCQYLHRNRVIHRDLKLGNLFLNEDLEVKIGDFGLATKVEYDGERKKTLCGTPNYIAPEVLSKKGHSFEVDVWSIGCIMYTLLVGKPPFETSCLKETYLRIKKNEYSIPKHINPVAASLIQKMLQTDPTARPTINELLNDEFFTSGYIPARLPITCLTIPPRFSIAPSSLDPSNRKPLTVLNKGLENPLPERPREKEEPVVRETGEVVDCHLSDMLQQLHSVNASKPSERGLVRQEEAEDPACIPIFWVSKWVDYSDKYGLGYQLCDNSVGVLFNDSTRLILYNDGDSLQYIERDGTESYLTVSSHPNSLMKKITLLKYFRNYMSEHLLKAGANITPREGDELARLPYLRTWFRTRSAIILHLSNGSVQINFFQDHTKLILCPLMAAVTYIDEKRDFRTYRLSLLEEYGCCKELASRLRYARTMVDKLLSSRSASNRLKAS

SMILES	Ki
Cc1ccc(C)c(CNc2ncc(C#N)c(-c3c[nH]c4ncc(C(F)(F)F)cc34)n2)c1 [Compound I-60, 2-(2,5-dimethylbenzylamino)-4-(5-(trifluoromethyl)-1H-pyrrolo[2,3-b]pyridin-3-yl)pyrimidine-5-carbonitrile]	3 to 40 nM
Cc1cnc2[nH]cc(-c3nc(N[C@@H](CO)C(C)C)ncc3C#N)c2c1 [EG8, 2-((R)-1-hydroxy-3-methylbutan-2-ylamino)-4-(5-methyl-1H-pyrrolo[2,3-b]pyridin-3-yl)pyrimidine-5-carbonitrile]	3 to 40 nM
C#CCNc1ncc(C#N)c(-c2c[nH]c3ncc(C(F)(F)F)cc23)n1 [Compound I-79, 2-(prop-2-ynylamino)-4-(5-(trifluoromethyl)-1H-pyrrolo[2,3-b]pyridin-3-yl)pyrimidine-5-carbonitrile]	> 40 nM
N#Cc1cnc(NCCN2CCSCC2)nc1-c1c[nH]c2ncc(C(F)(F)F)cc12 [Compound I-86, 2-(2-thiomorpholinoethylamino)-4-(5-(trifluoromethyl)-1H-pyrrolo[2,3-b]pyridin-3-yl)pyrimidine-5-carbonitrile]	> 40 nM
CC(C)[C@H](CO)Nc1ncc(C#N)c(-c2c[nH]c3ncc(C(F)(F)F)cc23)n1 [Compound I-47, 2-((R)-1-hydroxy-3-methylbutan-2-ylamino)-4-(5-(trifluoromethyl)-1H-pyrrolo[2,3-b]pyridin-3-yl)pyrimidine-5-carbonitrile]	< 3 nM
N#Cc1cnc(NC2CCCC2)nc1-c1c[nH]c2ncc(C(F)(F)F)cc12 [Compound I-73, 2-(cyclopentylamino)-4-(5-(trifluoromethyl)-1H-pyrrolo[2,3-b]pyridin-3-yl)pyrimidine-5-carbonitrile]	3 to 40 nM
CNC(=O)c1ccc([C@H](C)Nc2ncc(C#N)c(-c3c[nH]c4ncc(C(F)(F)F)cc34)n2)cc1 [Compound I-164, 4-((1S)-1-(5-cyano-4-(5-(trifluoromethyl)-1H-pyrrolo[2,3-b]pyridin-3-yl)pyrimidin-2-ylamino)ethyl)-N-methylbenzamide]	3 to 40 nM
CSc1ncc(C#N)c(-c2c[nH]c3ncc(C(F)(F)F)cc23)n1 [II-1, 2-(methylthio)-4-(5-(trifluoromethyl)-1H-pyrrolo[2,3-b]pyridin-3-yl)pyrimidine-5-carbonitrile]	> 40 nM
CNS(=O)(=O)c1ccc([C@@H](C)Nc2ncc(C#N)c(-c3c[nH]c4ncc(C(F)(F)F)cc34)n2)cc1 [Compound I-200, 4-((1R)-1-(5-cyano-4-(5-(trifluoromethyl)-1H-pyrrolo[2,3-b]pyridin-3-yl)pyrimidin-2-ylamino)ethyl)-N-methylbenzenesulfonamide]	< 3 nM
CC(Nc1ncc(C#N)c(-c2c[nH]c3ncc(C(F)(F)F)cc23)n1)c1ccc(=O)[nH]c1 (centres unmarked) [Compound I-100, 2-(1-(6-oxo-1,6-dihydropyridin-3-yl)ethylamino)-4-(5-(trifluoromethyl)-1H-pyrrolo[2,3-b]pyridin-3-yl)pyrimidine-5-carbonitrile]	< 3 nM
C[C@@H](Nc1ncc(C#N)c(-c2c[nH]c3ncc(C(F)(F)F)cc23)n1)C(=O)NCCO [IA-12, (2R)-2-(5-cyano-4-(5-(trifluoromethyl)-1H-pyrrolo[2,3-b]pyridin-3-yl)pyrimidin-2-ylamino)-N-(2-hydroxyethyl)-propanamide]	3 to 40 nM
C[C@@H](Nc1ncc(C#N)c(-c2c[nH]c3ncc(C(F)(F)F)cc23)n1)c1ccc(O)cc1 [Compound I-99, 2-((R)-1-(4-hydroxyphenyl)ethylamino)-4-(5-(trifluoromethyl)-1H-pyrrolo[2,3-b]pyridin-3-yl)pyrimidine-5-carbonitrile]	< 3 nM
N#Cc1cnc(Sc2ccc(Br)cc2)nc1-c1c[nH]c2ncc(C(F)(F)F)cc12 [II-8, 2-(4-bromophenylthio)-4-(5-(trifluoromethyl)-1H-pyrrolo[2,3-b]pyridin-3-yl)pyrimidine-5-carbonitrile]	> 40 nM
N#Cc1cnc(NCc2ccc(F)cc2)nc1-c1c[nH]c2ncc(C(F)(F)F)cc12 [Compound I-22, 2-(4-fluorobenzylamino)-4-(5-(trifluoromethyl)-1H-pyrrolo[2,3-b]pyridin-3-yl)pyrimidine-5-carbonitrile]	> 40 nM
CC(C)Nc1ncc(C#N)c(-c2c[nH]c3ncc(Nc4ccccc4)cc23)n1 [EG6, 2-(isopropylamino)-4-(5-(phenylamino)-1H-pyrrolo[2,3-b]pyridin-3-yl)pyrimidine-5-carbonitrile]	3 to 40 nM

Continued, values first:

Ki	SMILES
< 3 nM	C[C@@H](Nc1ncc(C#N)c(-c2c[nH]c3ncc(C(F)(F)F)cc23)n1)C1CCN(C(=O)C2CNC2)CC1 [Compound I-227, 2-((R)-1-(1-(azetidine-3-carbonyl)piperidin-4-yl)ethylamino)-4-(5-(trifluoromethyl)-1H-pyrrolo[2,3-b]pyridin-3-yl)pyrimidine-5-carbonitrile]
< 3 nM	C[C@@H](Nc1ncc(C#N)c(-c2c[nH]c3ncc(C(F)(F)F)cc23)n1)C1CCN(CC(N)=O)CC1 [Compound I-218, 2-(4-((1R)-1-(5-cyano-4-(5-(trifluoromethyl)-1H-pyrrolo[2,3-b]pyridin-3-yl)pyrimidin-2-ylamino)ethyl)piperidin-1-yl)acetamide]
< 3 nM	C[C@@H](Nc1ncc(C#N)c(-c2c[nH]c3ncc(C(F)(F)F)cc23)n1)C1CCN(C(=O)C(O)CO)CC1 (stereo partly drawn) [Compound I-257, 2-((1R)-1-(1-(2,3-dihydroxypropanoyl)piperidin-4-yl)ethylamino)-4-(5-(trifluoromethyl)-1H-pyrrolo[2,3-b]pyridin-3-yl)pyrimidine-5-carbonitrile]
3 to 40 nM	CC(C)[C@@H](CO)Nc1ncc(C#N)c(-c2c[nH]c3ncc(C(F)(F)F)cc23)n1 [Compound I-58, 2-((S)-1-hydroxy-3-methylbutan-2-ylamino)-4-(5-(trifluoromethyl)-1H-pyrrolo[2,3-b]pyridin-3-yl)pyrimidine-5-carbonitrile]
< 3 nM	CC(Nc1ncc(C#N)c(-c2c[nH]c3ncc(C(F)(F)F)cc23)n1)[C@H]1C[C@@H](O)C1 (stereo partly drawn) [Compound I-270, 2-((S)-1-((1s,3R)-3-hydroxycyclobutyl)ethylamino)-4-(5-(trifluoromethyl)-1H-pyrrolo[2,3-b]pyridin-3-yl)pyrimidine-5-carbonitrile]
< 3 nM	C[C@@H](Nc1ncc(C#N)c(-c2c[nH]c3ncc(C(F)(F)F)cc23)n1)C1CCN(C(=O)[C@H]2CCN2)CC1 [Compound I-259, 2-((R)-1-(1-((R)-azetidine-2-carbonyl)piperidin-4-yl)ethylamino)-4-(5-(trifluoromethyl)-1H-pyrrolo[2,3-b]pyridin-3-yl)pyrimidine-5-carbonitrile]
< 3 nM	C[C@@H](Nc1ncc(C#N)c(-c2c[nH]c3ncc(C(F)(F)F)cc23)n1)C1CCN(C(=O)[C@@H]2CCCN2)CC1 [Compound I-236, 2-((R)-1-(1-((S)-pyrrolidine-2-carbonyl)piperidin-4-yl)ethylamino)-4-(5-(trifluoromethyl)-1H-pyrrolo[2,3-b]pyridin-3-yl)pyrimidine-5-carbonitrile]
< 3 nM	CC(Nc1ncc(C#N)c(-c2c[nH]c3ncc(C(F)(F)F)cc23)n1)C1CCN(S(=O)(=O)C2CC2)CC1 (centres unmarked) [Compound I-158, 2-(1-(1-(cyclopropylsulfonyl)piperidin-4-yl)ethylamino)-4-(5-(trifluoromethyl)-1H-pyrrolo[2,3-b]pyridin-3-yl)pyrimidine-5-carbonitrile]
